# Patent publication US20230310441A1, “TREATMENT FOR SCHIZOPHRENIA” (TAKEDA PHARMACEUTICAL COMPANY, priority 2020, published 2023)
# Read-outs that look alike come from different tables or passages of the source.
# How the values were obtained:
# [1] = Phase 2 crossover study: safety in subjects with stable schizophrenia; type: in vivo, human
# Excerpt: The safety analysis set consisted of all subjects who were enrolled and received at least 1 dose of study drug. Safety measurements included adverse events, physical examinations, vital signs, clinical laboratory evaluations, ECGs, and C-SSRS.
# [2] = Phase 1 FIH study Part 4: plasma pharmacokinetics in patients with stable schizophrenia; type: in vivo, human
# Protocol: Part 4 was a double-blind, weekly single dosing, parallel group design in patients with stable schizophrenia.
# Participants were randomly assigned 2:1 to receive either Compound (I) or placebo. For the participants receiving Compound (I), a loading dose was administered on Day 1, and a maintenance dose, at half the initial dose, on Days 8, 15, and 22. Participants in the placebo group received placebo on all study dosing days.
# Plasma and urine concentrations of Compound (I) and urine concentrations of cortisol and 6β-hydroxycortisol were measured by high performance liquid chromatography with tandem mass spectrometry. One 4 mL blood sample was collected per scheduled assessment. For participants receiving placebo, blood samples were analyzed only at pre-dose and around the time Cmax occurred (as emerging from the measurements of the first dose group) to ensure that no additional participants could have been on active treatment. Serial urine samples were collected for Part 1 cohorts 1-5 and Part 2 cohorts 1-4. Urine samples for participants receiving placebo were not analyzed. Urine samples were collected for the determination of cortisol and 6β-hydroxycortisol for Part 2 cohorts 1-4 and for all patients in Part 4. Samples for participants randomized to placebo were analyzed for these parameters.
# Pharmacokinetic parameters were determined from the concentration-time profiles for all evaluable participants. Actual sampling times were used in all computations. pharmacokinetic parameters were calculated using non-compartmental analysis using Phoenix WinNonLin v8.0 or SAS v 9.4.
# One participant in the 160/80 mg Compound (I) cohort in Part 4 (MRD study with patients with stable schizophrenia) missed the Day 15 dose. Pharmacokinetic concentrations for Day 22 for this participant were excluded from the mean plasma-concentration time profile and associated pharmacokinetic parameters were excluded from statistical analysis.
# One participant in the 160/80 mg Compound (I) cohort in Part 4 (MRD study with patients with stable schizophrenia) terminated the study following dosing on Day 1. The participant's PK parameters were excluded from statistical analysis.
# Another participant in the 160/80 mg Compound (I) cohort in Part 4 (MRD study with patients with stable schizophrenia) terminated the study following dosing on Day 22. Accordingly, all PK parameters for the participant other than tmax, Cmax, observed plasma concentration at the end of a dosing interval, AUC24, AUC48, and AUC96 were excluded from summary and statistical analysis.
# [3] = Separate single dose oral study: half-life in dogs; conditions: dog, in vivo; single dose oral administration of 5-15 mg/kg
# Excerpt: The mean t1/2z for Compound (I) reflects the prolonged half-life of Compound (I) in humans. […] In that study, the mean human half-life of Compound (I) (approximately 11 days) was substantially higher than the 2-4 hr mean half-life observed in rats and dogs.
# [4] = stable schizophrenia, oral, 160/80 mg, Day 22, N 14
structure (smiles),measurement,setting,value
"C[C@H](NC(=O)Cn1nnc2ccccc2c1=O)c1ccc(OC(F)(F)F)cc1 [Compound (I), (S)-2-(4-oxobenzo[d][1,2,3]triazin-3(4H)-yl)-N-(1-(4-(trifluoromethoxy)phenyl)ethyl)acetamide]",deaths or serious adverse events,[1]; phase 2,no deaths or serious adverse events
same,discontinuation of study medication due to TEAEs,[1]; phase 2,No subjects discontinued study medication due to TEAEs
same,safety and tolerability,"[1]; phase 2, single doses 40 or 160 mg, add-on to antipsychotics",safe and well-tolerated
same,steady-state mean t1/2z,"[2]; Part 4 MRD, schizophrenia participants",334 h
same,peak systemic exposure lower in schizophrenia participants compared with healthy participants,[2]; Part 4 vs healthy,23-30%
same,total systemic exposure lower for schizophrenia participants compared with healthy participants,[2]; Part 4 vs healthy,22-27%
same,Cmax,"[2]; human, plasma, oral, Part 4 MRD, 160/80 mg, up to 168 h post-dose, read-out: Mean Cmax (SD)",1270 ng/mL
same,Tmax,"[2]; human, plasma, oral, Part 4 MRD, schizophrenia patients, read-out: median tmax",1.8 h
same,AUC(0-t),"[2]; human, plasma, po, stable schizophrenia, oral, 160/80 mg, Day 1, N 15",149 µg·h/mL
same,AUC,"[2]; human, plasma, po, stable schizophrenia, oral, 160/80 mg, Day 1, N 15, read-out: AUC24 (mean)",20.4 µg·h/mL
same,AUC,"[2]; human, plasma, po, stable schizophrenia, oral, 160/80 mg, Day 1, N 15, read-out: AUC96 (mean)",90.4 µg·h/mL
same,AUC,"[2]; human, plasma, po, stable schizophrenia, oral, 160/80 mg, Day 1, N 15, read-out: AUCτ (mean)",149 µg·h/mL
same,Cmax,"[2]; human, plasma, po, stable schizophrenia, oral, 160/80 mg, Day 1, N 15, read-out: Cmax (mean)",1270 ng/mL
same,Tmax,"[2]; human, plasma, po, stable schizophrenia, oral, 160/80 mg, Day 1, N 15, read-out: tmax (median)",2 h
same,AUC(0-t),"[2]; human, plasma, po, stable schizophrenia, oral, 160/80 mg, Day 22, N 14",660 µg·h/mL
same,AUC,"[2]; human, plasma, po, stable schizophrenia, oral, 160/80 mg, Day 22, N 14, read-out: AUC24 (mean)",35.5 µg·h/mL
same,AUC,"[2]; human, plasma, po, stable schizophrenia, oral, 160/80 mg, Day 22, N 14, read-out: AUC96 (mean)",140 µg·h/mL
same,AUC,"[2]; human, plasma, po, stable schizophrenia, oral, 160/80 mg, Day 22, N 14, read-out: AUCτ (mean)",227 µg·h/mL
same,Cmax,"[2]; human, plasma, po, stable schizophrenia, oral, 160/80 mg, Day 22, N 14, read-out: Cmax (mean)",1880 ng/mL
same,Tmax,"[2]; human, plasma, po, stable schizophrenia, oral, 160/80 mg, Day 22, N 14, read-out: tmax (median)",1.8 h
same,Vd/F,"[2]; human, plasma, stable schizophrenia, oral, 160/80 mg, Day 22, N 14, read-out: Vz/F (mean)",172 L
same,CL/F (mean),[2]; [4],365.5 mL/h
same,"Cav,ss (mean)",[2]; [4],1352.6 ng/mL
same,Ctrough (mean),[2]; [4],950.4 ng/mL
same,t1/2z (mean),[2]; [4],333.8 h
same,half-life,[3],2 to 4 h
